This passage reports IC50 results from US9932340B2, “Substituted indoles” (AbbVie Inc., priority 2014, dated 2018).

For orientation: IC50 means the concentration needed to halve the response being measured.

Sequence of SUV420H1 enzyme (Q4FZB7 whole entry): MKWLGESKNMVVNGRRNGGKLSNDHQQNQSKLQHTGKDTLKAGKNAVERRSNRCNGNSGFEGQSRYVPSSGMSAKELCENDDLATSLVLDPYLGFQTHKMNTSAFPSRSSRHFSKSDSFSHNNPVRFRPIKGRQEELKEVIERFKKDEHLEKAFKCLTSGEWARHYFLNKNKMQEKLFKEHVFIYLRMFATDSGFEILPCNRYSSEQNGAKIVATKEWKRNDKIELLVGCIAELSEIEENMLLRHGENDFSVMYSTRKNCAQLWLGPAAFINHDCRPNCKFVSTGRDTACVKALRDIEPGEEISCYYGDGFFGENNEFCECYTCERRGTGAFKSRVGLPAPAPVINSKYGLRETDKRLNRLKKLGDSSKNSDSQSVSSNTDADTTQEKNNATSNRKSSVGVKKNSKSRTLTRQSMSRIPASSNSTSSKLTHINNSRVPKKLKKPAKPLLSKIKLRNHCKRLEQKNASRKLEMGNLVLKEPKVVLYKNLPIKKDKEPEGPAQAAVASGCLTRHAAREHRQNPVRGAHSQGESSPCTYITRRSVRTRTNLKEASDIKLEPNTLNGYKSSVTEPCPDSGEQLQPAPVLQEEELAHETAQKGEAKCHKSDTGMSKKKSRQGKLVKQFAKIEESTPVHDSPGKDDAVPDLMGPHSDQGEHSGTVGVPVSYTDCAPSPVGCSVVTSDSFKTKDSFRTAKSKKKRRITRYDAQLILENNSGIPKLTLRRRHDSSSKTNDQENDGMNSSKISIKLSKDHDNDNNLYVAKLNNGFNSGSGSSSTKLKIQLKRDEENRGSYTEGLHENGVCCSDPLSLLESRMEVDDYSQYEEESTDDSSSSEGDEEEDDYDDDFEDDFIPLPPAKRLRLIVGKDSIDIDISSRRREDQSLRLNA

The target of this test is SUV420H1 enzyme (Homo sapiens, UniProt Q4FZB7). Nature of the test: TR-FRET SAH SUV420H1 enzyme inhibition assay. The test is classed as biochemical. The settings on record: Histone Peptide H4(8-30)me1 and SAM, overnight at room temp, TR-FRET detection of SAH, read-out: TR-FRET SAH_SUV420H1 IC50. Put shortly:
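SUV420H1 (90 nM) preincubated 30 min with compound (3-fold dilutions, 50 to 0.00075 μM), then H4(8-30)me1 peptide 5 nM and SAM 4 nM added, overnight at room temp. SAH product detected by TR-FRET with Tb anti-SAH antibody and Oregon Green-SAH in RIPA buffer, 4 h; IC50 from Hill fit, asymptotes fixed 0-100%.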
In general terms: In TR-FRET formats the signal depends on donor and acceptor labels being close together.
Consider `Nc1ncnc2c1ncn2Cc1cc(Cl)cc2cc(CNC(=O)c3cncs3)[nH]c12` [Example 138, N-({7-[(6-amino-9H-purin-9-yl)methyl]-5-chloro-1H-indol-2-yl}methyl)-1,3-thiazole-5-carboxamide], for which the IC50 was found to be 1640 nM.

With `CC(=O)N1CC=C(c2cc(Cn3cnc4c(N)ncnc43)c3[nH]c(CN)cc3c2)CC1` [Example 15, 1-[4-{2-(aminomethyl)-7-[(6-amino-9H-purin-9-yl)methyl]-1H-indol-5-yl}-3,6-dihydropyridin-1(2H)-yl]ethanone], the 50% inhibitory concentration (IC50) was determined as 154 nM.

Regarding `CN1CCN(C(=O)c2ccc(-c3cc(Cn4cnc5c(N)ncnc54)c4[nH]c(CN)cc4c3)cc2)CC1` [Example 56, (4-{2-(aminomethyl)-7-[(6-amino-9H-purin-9-yl)methyl]-1H-indol-5-yl}phenyl)(4-methylpiperazin-1-yl)methanone], the IC50 is 240 nM.

For the compound `CC1(C(=O)NCc2cc3cc(Cl)cc(Cn4cnc5c(N)ncnc54)c3[nH]2)CC1` [Example 108, N-({7-[(6-amino-9H-purin-9-yl)methyl]-5-chloro-1H-indol-2-yl}methyl)-1-methylcyclopropanecarboxamide], the IC50 is 17000 nM.

`Nc1ncnc2c1ncn2Cc1cc(Cl)cc2cc(CNC(=O)c3ccccc3C(F)(F)F)[nH]c12` [Example 257, N-({7-[(6-amino-9H-purin-9-yl)methyl]-5-chloro-1H-indol-2-yl}methyl)-2-(trifluoromethyl)benzamide]: the IC50 is 493 nM.

Consider `Nc1ncnc2c1ncn2Cc1cc(Cl)cc2cc(CNC(=O)c3cnc4[nH]cnc4c3)[nH]c12` [Example 333, N-({7-[(6-amino-9H-purin-9-yl)methyl]-5-chloro-1H-indol-2-yl}methyl)-3H-imidazo[4,5-b]pyridine-6-carboxamide], for which the IC50 stood at 1700 nM.

Regarding `Cc1cccc(CC(=O)NCc2cc3cc(Cl)cc(Cn4cnc5c(N)ncnc54)c3[nH]2)c1` [Example 293, N-({7-[(6-amino-9H-purin-9-yl)methyl]-5-chloro-1H-indol-2-yl}methyl)-2-(3-methylphenyl)acetamide], the IC50 was found to be 20500 nM.
